Experimental data: article PMC6687188, “Novel lactate dehydrogenase inhibitors with in vivo efficacy against Cryptosporidium parvum” (PLoS Pathogens, 2019)
Where two headings read alike, the source gives them in different places.

Assays:
[1] = molecular target: T1, recombinant CpLDH protein (Cryptosporidium parvum, UniProt Q9GT92, F198L/K295E/R251K)
HCT-8 cells = experiment: Compound cytotoxicity assay (WST-1 cell proliferation reagent)
Procedure: (§1) A colorimetric assay using the cell proliferation reagent WST-1 (Roche, USA) for the quantification of cell viability was performed. […] When the cells were confluent, the old medium was replaced with fresh medium with or without varying concentrations of chemical compound. After 24 h of culture, 10 μl of the cell proliferation reagent WST-1, (for quantification of cell viability) was added to each well, mixed and the plates incubated for 1 h at 37 C with 5% CO2 in the dark. […] Three independent assays were performed and the dose–response curves of the means of triplicate assays were generated using GraphPad PRISM software to derive the half maximal inhibitory concentration (IC50) of compounds in HCT-8 cells.

[2] = molecular target: T1, recombinant CpLDH protein; conditions: value in parentheses; ref Zhang et al., 2015 [11]; cited from earlier work
[3] = molecular target: T1, recombinant CpLDH protein; conditions: for Km: pyruvate/NADH: reduction reaction pH 7.5, lactate/NAD+: oxidation reaction pH 9.2, 25°C; for Kcat / Vmax: pyruvate/NADH: reduction reaction, lactate/NAD+: oxidation reaction
Procedure: The coding sequence of CpLDH was cloned from cDNA prepared from the AUCP-1 isolate of C. parvum, and the His-tagged CpLDH recombinant protein expressed in Escherichia coli, and purified in native form essentially as previously described. Briefly, cDNA was prepared from total RNA extracted from the AUCP-1 isolate of C. parvum, and the coding sequence of CpLDH (Genebank accession number AF274310.1) was PCR-amplified from the cDNA using the primer pair 5’-[…]-3’ (Forward, with the XhoI restriction site italicized and start codon in bold) and 5’-[…]-3’ (Reverse, with the BamHI site italicized and stop codon in bold). The PCR amplicon was cloned at the XhoI/BamHI site of the pET15b expression vector in-frame with the hexahistidine (His-tag) at the N-terminal and sequenced to confirm identity. The recombinant expression vector was transformed into protein expression E. coli BL21-CodonPlus-DE3-RIL (Stratagene). Transformed E. coli was cultured at 37°C in Luria broth medium (supplemented with 100 μg/ml ampicillin and 34 μg/ml chloramphenicol) to an A600 of 0.8 followed by addition of 1 mM isopropyl-β-D-thiogalactopyranoside to induce protein expression. The expression E. coli was harvested and lysed under native conditions by sonicating in lysis buffer (50 mM NaH2PO4, 300 mM NaCl, 10 mM Imidazole, pH 8.0) containing a 1x EDTA-free protease inhibitor cocktail, 600 units benzonase and 30 kU lysozyme (EMD Millipore). The lysate was clarified by centrifugation and the His-tagged recombinant protein purified under native conditions by nickel-affinity chromatography according to the manufacturer's instructions (Novagen). The wash buffer used contained 50 mM NaH2PO4, 300 mM NaCl and 20 mM Imidazole, pH 8.0, while the elution buffer was composed of 50 mM NaH2PO4, 300 mM NaCl, 250 mM Imidazole, pH 8.0. The eluate was dialyzed using a buffer containing 5 mM Hepes–KOH (pH 7.8) and 0.5 mM DTT. The purity of the recombinant protein was determined by SDS/PAGE, and the concentration measured using a Qubit 3.0 fluorometer (Life technologies). […] On the other hand, the catalytic activity of CpLDH recombinant protein for the oxidation of lactate to pyruvate was determined by measuring the change in optical density of a 100 μl reaction mixture containing 100 mM lactate, 1 mM NAD^+, 100 mM Tris, pH 9.2, with varying concentrations of CpLDH recombinant protein at 25°C. […] In all assays, reaction mixtures without recombinant CpLDH protein were included as negative controls. All assays were performed in triplicate and repeated at least thrice. The change in optical density was measured every 15 seconds for a total of 2 minutes using a Spectra Max 384 Plus plate reader (Molecular Devices) at a wave length of 340 nm.

[4] = molecular target: T1, recombinant CpLDH protein; conditions: cited from earlier work
[5] = Compound cytotoxicity assay (WST-1 cell proliferation reagent); conditions: human
Procedure: as §1

Row | Structure (SMILES) | MEAN CpLDH INHIBITION (%) [1] | IC50 (HCT-8 cells) | other results
1 | CC(=O)Nc1ccc(-c2nc3ccccc3s2)cc1 [NSC33006] | 13.74% | 87.3 µM | –
2 | CC(O)C(=O)O (stereo not drawn) [Lactate, lactate] | – | – | Kcat [2]: 0.66 s⁻¹; Km [2]: 10800 µM; Vmax [2]: 0.53 nmol⁻¹ µg⁻¹ min⁻¹; Km [3]: 39600 µM; Kcat [3]: 0.07 s⁻¹; Vmax [3]: 0.04 nmol⁻¹ µg⁻¹ min⁻¹
3 | O=S(=O)(O)c1cc(N=Nc2cc(S(=O)(=O)O)c3cccnc3c2O)ccc1/C=C/c1ccc(N=Nc2cc(S(=O)(=O)O)c3cccnc3c2O)cc1S(=O)(=O)O [NSC638352] | 43.74% | 116 µM | –
4 | O=[N+]([O-])c1cccc2c(N=Nc3ccc4ccccc4c3O)c(O)cc(S(=O)(=O)O)c12.[Na+] [NSC85561] | 73.45% | 103 µM | –
5 | O=[N+]([O-])c1ccc2c(N=Nc3c(O)ccc4ccccc34)c(O)cc(S(=O)(=O)[O-])c2c1.[Na+] [NSC73413] | 54.98% | 220 µM | –
6 | CCCc1c(O)c(O)c(C(=O)O)c2cc(Cc3ccccc3)c(C)cc12 [FX11] | – | – | enzymatic activity of CpLDH (in words) [4]: able to inhibit
7 | NC(=O)C1=CN([C@@H]2O[C@H](COP(=O)(O)OP(=O)(O)OC[C@H]3O[C@@H](n4cnc5c(N)ncnc54)[C@H](O)[C@@H]3O)[C@@H](O)[C@H]2O)C=CC1 [NADH] | – | – | Km [3]: 734 µM; Vmax [3]: 6.29 nmol⁻¹ µg⁻¹ min⁻¹
8 | COC(=O)C1=C(C(=O)OC)SC2(S1)C(C(=O)OC)=C(C(=O)OC)Sc1c2ssc1=O [NSC686349] | 31.74% | 283 µM | –
9 | COc1ccc(/C=C/C(=O)Oc2cc(O)cc(O)c2)cc1 [NSC175296] | 0.00% | 156 µM | –
10 | Cc1cc2c(c3oc(C4(C)OC4C4OC4C)cc(=O)c13)C(=O)c1c(O)c(C3CC(C)(N(C)C)C(O)C(C)O3)cc(C3CC(N(C)C)C(O)C(C)O3)c1C2=O (stereo not drawn) [NSC70929] | 13.50% | 181 µM | –
11 | CC(=O)C(=O)O [Pyruvate, pyruvate] | – | – | Kcat [2]: 16.10 s⁻¹; Km [2]: 427 µM; Vmax [2]: 12.89 nmol⁻¹ µg⁻¹ min⁻¹; Km for pyruvate lower than that for lactate [3]: at least 54 fold; Vmax for pyruvate higher than that for lactate [3]: 123 fold; Km [3]: 731 µM; Kcat [3]: 8.42 s⁻¹; Vmax [3]: 5.04 nmol⁻¹ µg⁻¹ min⁻¹
12 | Cc1cc2c(C(C)C)c(O)c(O)c(C=O)c2c(O)c1-c1c(C)cc2c(C(C)C)c(O)c(O)c(C=O)c2c1O [gossypol] | – | – | enzymatic activity of CpLDH (in words) [4]: able to inhibit
13 | NC(=O)c1ccc[n+]([C@@H]2O[C@H](COP(=O)([O-])OP(=O)(O)OC[C@H]3O[C@@H](n4cnc5c(N)ncnc54)[C@H](O)[C@@H]3O)[C@@H](O)[C@H]2O)c1 [NAD^+] | – | – | Kcat [2]: 0.70 s⁻¹; Km [2]: 62 µM; Vmax [2]: 0.56 nmol⁻¹ µg⁻¹ min⁻¹; Km [3]: 56 µM; Kcat [3]: 0.11 s⁻¹; Vmax [3]: 0.07 nmol⁻¹ µg⁻¹ min⁻¹
14 | CCOC(C)C(C=NNC(N)=S)=NNC(N)=S (stereo not drawn) [NSC82116] | 10.05% | 118 µM | –
15 | O=C1/C(=C/c2ccccc2)CN(C(=O)/C=C/c2ccccc2)C/C1=C\c1ccccc1 [NSC638634] | 0.30% | 157 µM | –
16 | Cc1cc(N(CCCl)CCCl)ccc1/C=N/NC(=O)Cc1cc(=O)oc2cc(O)ccc12 [NSC79688] | 40.15% | – | IC50 (HCT-8 cells; read-out: CYTOTOXICITY IC50, HCT-8 cells, 24 h): 145 µM

Row | Structure (SMILES) | MEAN CpLDH INHIBITION (%) [1] | IC50 (HCT-8 cells) | other results
17 | O=Cc1cc([N+](=O)[O-])no1 [NSC626433] | 48.62% | 265 µM | –
18 | CC(O)CCC(=O)c1ccoc1 (stereo not drawn) [NSC349438] | 13.12% | 93.9 µM | –
19 | [Cl][Cd][Cl] [NSC51148] | 64.58% | 39.6 µM | –
20 | CN(C)C(=S)SSC(=S)N(C)C [NSC1771] | – | – | IC50 at 24 h [5]: 110 µM
21 | O=C(O)[C@@H]1[C@H](C(=O)O)[C@]2(Cl)C(Cl)=C(Cl)[C@@]1(Cl)C2(Cl)Cl [NSC22225] | – | 96.8 µM | effect on catalytic activity of recombinant CpLDH (in words) [1]: significantly (P < 0.05) inhibited
22 | O=S(=O)(O)c1cc(N=[N+]([O-])c2cc(S(=O)(=O)O)c3ccccc3c2)cc2ccccc12 [NSC37031] | – | 333 µM | effect on catalytic activity of recombinant CpLDH (in words) [1]: significantly (P < 0.05) inhibited
23 | O=C(CC(=O)C(F)(F)F)c1csc2ccccc12 [NSC80396] | -8.51% | 91.9 µM | –
24 | CCOC(=O)Cc1c(C)c2cc(C(=O)c3ccccc3)c(O)cc2oc1=O [NSC115538] | 0.63% | 158 µM | –
25 | O=S(=O)([O-])c1cc(N=Nc2cc(S(=O)(=O)[O-])c3ccccc3c2O)ccc1/C=C/c1ccc(N=Nc2cc(S(=O)(=O)[O-])c3ccccc3c2O)cc1S(=O)(=O)[O-].[Na+].[Na+].[Na+].[Na+] [NSC34931] | 43.74% | 71.1 µM | –
26 | O=c1oc2cc(O)ccc2c2oc3cc(O)ccc3c12 [NSC22842] | 3.48% | 83.5 µM | –
27 | Cc1cc2c(C(C)C)c(O)c(O)c(C=O)c2c(O)c1-c1c(C)cc2c(C(C)C)c(O)c(O)c(C=O)c2c1O [NSC56817] | – | – | IC50 at 24 h [5]: 64.2 µM
28 | Cc1ccc2c(sc(-c3ccc4c(c3)sc(-c3ccc(N(C)C)cc3)[n+]4C)[n+]2C)c1S(=O)(=O)[O-].[Cl-] [NSC71948] | 60.47% | 106 µM | –
29 | O=C([CH-]C(=O)C(F)(F)F)c1ccccc1.O=C([CH-]C(=O)C(F)(F)F)c1ccccc1.O=C([CH-]C(=O)C(F)(F)F)c1ccccc1.O=C([CH-]C(=O)C(F)(F)F)c1ccccc1.[Eu+3].c1ccncc1 [NSC253995] | 25.71% | 83 µM | –
30 | CC1=C(CCC(=O)O)c2cc3nc(cc4[nH]c(cc4C)cc4[nH]c(cc1n2)cc4C)C(C)=C3CCC(=O)O [NSC18298] | 53.86% | 81.9 µM | –
31 | N#CCCN(CCC#N)Cc1cc(O)c(CN(CCC#N)CCC#N)cc1O [NSC70925] | 68.17% | 142 µM | –
